{"source": "patent US20110212108A1", "about": "“NEUREGULIN/ERBB SIGNALING AND INTEGRIN” (THE REGENTS OF THE UNIVERSITY OF CALIFORNIA, priority 2008, published 2011)", "key": {"Human M21 melanoma cells": {"test_system": "Human M21 melanoma cells", "assay": "M21 cell proliferation, MTS assay", "type": "cell-based", "conditions": "for Induction of proliferation of M21 melanoma cells: serum-starved overnight, cultured 48 h, MTS", "description": "FIG. 8. […] The mutant NRG1 (175-222) suppressed proliferation induced by wt NRG1 (175-222) (dominant-negative effect). Human M21 melanoma cells were serum-starved overnight and cultured 48 h with wt or mutant GST-NRG1 (175-222). Cell proliferation was measured by using MTS assays. Data are shown as means+/−SE (n=3). […] For 3KE+WT, 10 ng/ml wt NRG1 (175-222) and mutant NRG1 (175-222) were added at the indicated concentrations. […] P<0.0001 between wt and 3KE, p=0.0001 between wt and 3KE+wt by 2-way ANOVA. There is no statistical significance between 3KE and 3KE+wt (p=0.58).\nCell proliferation: cells were starved by culturing DMEM with low-level FCS (e.g., 0.4%) overnight and then treated with the wt or mutant NRG1 (175-222) (up to 100 ng/ml). The cells were harvested in 15 min to 6 h after stimulation and cell lysates analyzed by western blotting with antibodies specific to signaling molecules. Alternatively, cells were cultured for 24-48 h after stimulation for testing proliferation or cell viability by MTS assays. Statistical analysis and calculation of kinetic constants were performed using Prism software (Graphpad)."}, "HaCAT keratinocytes": {"test_system": "HaCAT keratinocytes", "assay": "ERK1/2 activation in HaCAT keratinocytes, Western blotting", "type": "cell-based", "conditions": "serum-starved; background Erk1/2 level high", "description": "FIG. 18. […] HaCAT keratinocytes were serum-starved and incubated with wt NRG1 (175-222) or 3KE (175-222). The levels of Erk1/2 activation were determined by Western blotting."}, "[1]": {"test_system": "mammary intraepithelial neoplasia-outgrowth (MIN-O)", "assay": "Outgrowth of precancer (MIN-O) in FVB mice", "type": "in vivo", "conditions": "200 ng/day/mouse intraperitoneally, 5 days a week for 4 weeks; P=0.0355", "description": "FIG. 16. Inhibitory effect of daily intraperitoneal injection of 3KE (175-222) on the outgrowth of precancer (MIN-O) in FVB mice. MIN-O was transplanted into fat pads of FVB mice (two per mice) and 3KE (175-222) (200 ng/mouse/day) was injected 5 days a week for 4 weeks starting day 0. After 28 days, mice were sacrificed and the dimensions of tumors were measured. Since MIN-O grows as a thin layer, the two-dimensional size was calculated and the thickness was ignored. P=0.0355 by ANOVA between control and 3KE (175-222).\nTo study the effect of 3KE (175-222) on the premalignant cancer, transplantable mammary intraepithelial neoplasia-outgrowth (MIN-O) tissue lines, which were derived from hyperplastic mammary lesions in young Tg(MMTV-PyV-mT) females (Maglione et al. 2004), were used. The resulting lesions mimic the biological behavior, molecular biology, and histopathology of human ductal carcinoma in situ (Maglione et al. 2004). One mm^3 pieces of the 8w-BMINO tissues (Maglione et al. 2004) were transplanted to gland-cleared no. 4 mammary fat pads of 3-week-old FVB females bilaterally."}, "[2]": {"test_system": "Met-1 tumor (a highly metastatic mouse breast cancer)", "assay": "Met-1 tumor transplanted subcutaneously into nude mice", "type": "in vivo", "conditions": "100 ng/mouse/day intraperitoneally, 5 days a week; P<0.0001", "description": "FIG. 15. 3KE (175-222) mutant suppressed tumorigenesis in a xenograft experiment with highly metastatic Met-1 tumor. Met-1 tumor (a highly metastatic mouse breast cancer) (4×4×4 mm) was transplanted subcutaneously into nude mice. The 3KE (175-222) mutant or vehicle was intraperitoneally injected ([…] 5 days a week) to mice, starting day 0. Data are shown as means+/−SEM. P<0.0001 by 2-way ANOVA (n=2 for control and n=3 for 3KE).\nIt was tested whether intraperitoneal injection of 3KE (175-222) can affect tumor growth in vivo. The Met-1 line (a highly metastatic mouse mammary tumor) (Guy et al. 1992; Cheung et al. 1997) has the polyoma virus middle T (PyV-MT) transgene, and metastasize with 100% efficiency. Met-1 (4mm×4 mm×4 mm) was transplanted to nude mice and 3KE (175-222) (100 ng/mouse/day 5 days a week) was intraperitoneally injected."}, "[3]": {"test_system": "Met-1 mouse breast cancer", "assay": "Met-1 mouse breast cancer transplanted to fat pad of FVB syngeneic mice", "type": "in vivo", "conditions": "200 ng/mouse/day intraperitoneally from day 5", "description": "FIG. 23. Effect of the 3KE (175-241) mutation on in vivo tumorigenesis. Top: Growth curve. […] (P<0.0001 by two way ANOVA.) Bottom: Tumor size at day 18.\nIn the present invention, Met-1 mouse breast cancer fragment (2×2×2 mm) was transplanted to fat pad of FVB syngeneic mice (2 per animal, 5-6 mice per group) (day 0). At day 5, intraperitoneal injection of 200 ng/mouse/day wt NRG1, 3KE, heat-denatured 3KE or vehicle (PBS) everyday were started (FIG. 23). PBS contains 0.1 mg/ml mouse serum albumin as carrier. Tumor size was measured using caliper twice a week (FIG. 23). Tumor size was calculated using V=0.4×(a×b×b) where a is the longest diameter and b is a diameter perpendicular to a. Statistical analysis was performed using Prism software package."}}, "data": [{"molecule": "3KE (175-222): NRG1 (175-222) with Lys181/Lys185/Lys187 mutated to Glu; GTSHLVECAEEEETFCVNGGECFMVKDLSNPSRYLCKCQPGFTGARCT (SEQ ID NO:11) (integrin-binding site within human neuregulin, 3KE mutant, short version)", "values": [{"measurement": "Suppression of proliferation induced by wt NRG1 (175-222) in M21 cells", "setting": "Human M21 melanoma cells; added together with 10 ng/ml wt NRG1 (175-222)", "result": "suppressed the proliferation induced by wt NRG1 (175-222)"}, {"measurement": "Induction of proliferation of M21 melanoma cells", "setting": "Human M21 melanoma cells", "result": "did not induce proliferation"}, {"measurement": "ERK1/2 activation in HaCAT cells", "setting": "HaCAT keratinocytes", "result": "suppressed levels of ERK1/2 activation"}, {"measurement": "Outgrowth of MIN-O in FVB mice", "setting": "[1]", "result": "effectively suppressed the outgrowth of MIN-O tumors"}, {"measurement": "Tumor growth of Met-1 in nude mice", "setting": "[2]", "result": "markedly suppressed tumor growth"}]}, {"molecule": "wt NRG1 (175-222): wild type human neuregulin 1 fragment, EGF-like domain, residues 175-222 of SEQ ID NO:4 (SEQ ID NO:3) (GTSHLVKCAEKEKTFCVNGGECFMVKDLSNPSRYLCKCQPGFTGARCT; integrin-binding site within human neuregulin 1 EGF-like region and portion of alpha domain, residues 175-222 of human neuregulin 1 alpha) [reference compound]", "values": [{"measurement": "Induction of proliferation of M21 melanoma cells", "setting": "Human M21 melanoma cells", "result": "did"}]}, {"molecule": "3KE (175-241): NRG1α (175-241) with Lys181/Lys185/Lys187 mutated to Glu, SEQ ID NO:6 (3KE, long version) (protein, integrin-binding site within human neuregulin, residues 175-241of human neuregulin 1alpha, long version, 3KE mutant) GTSHLVECAEEEETFCVNGGECFMVKDLSNPSRYLCKCQPGFTGARCTENVPMKVQNQEKAEELYQK", "values": [{"measurement": "Tumor growth curve of Met-1 in FVB mice", "setting": "[3]; P<0.0001 by two way ANOVA", "result": "suppressed tumor growth"}, {"measurement": "Tumor size at day 18, Met-1 in FVB mice", "setting": "[3]; t-test", "result": "suppressed tumor growth"}]}]}
